Measured values published in patent US20130289070A1, “Use of Levocabastine for Modulating Generation of Pro-Inflammatory Cytokines” (Bausch & Lomb Incorporated, priority 2007, published 2013).

Test system: EoL-1 (human eosinophilic leukaemia cell line) cells
Experiment: TNF-α-induced cytokine release, EoL-1 cells differentiated with PMA (Luminex)
Format: cell-based
Parameters: key to IL-1α (PMA), p of decrement / IL-1β (PMA), p of decrement / IL-1ra (PMA), p of decrement / IL-5 (PMA), p of decrement / IL-7 (PMA), p of decrement / IL-8 (PMA), p of decrement / IP-10 (PMA), p of decrement / MCP-1 (PMA), p of decrement / MIP-1β (PMA), p of decrement / RANTES (PMA), p of decrement / VEGF (PMA), p of decrement / Fractalkine (PMA), p of decrement / MIP-1α (PMA), p of decrement: ns = non significant
Protocol: EoL-1 (human eosinophilic leukaemia cell line) cells (Saito et al., 1985; Mayumi, 1992) were maintained in RPMI-1640 medium with L-glutamine supplemented with 10% (v/v) FBS at 37° C. in a humidified atmosphere with 5% CO2. Where indicated, 24 h before the experiment 25 ng/mL PMA ((phorbol 12-myristate 13-acetate, purchased from Sigma Aldrich) was added to the medium to induce eosinophil granulation and differentiation (Ohtsu et al., 1993; Zimmermann et al., 2000).
Half-million cells were aliquoted per point in a 24 well plate; each experiment was performed in triplicate and carried out in parallel with eosinophils differentiated and non differentiated with PMA (25 ng/mL, 24 h). Cells were suspended in low serum medium (RPMI-1640, 0.1% (v/v) FBS). TNF-α was used to induce cytokine secretion as previously described by Steube et al. (2000), and the net release was obtained by comparison to the basal (non-TNF-α treated). In the first experiment we evaluated the concentration and time relation between TNF-α stimulation and cytokine release. Therefore, 5, 10, and 25 ng/mL of TNF-α was administered to the cells at 0, ½, 1, 2, 3, 6, 12 and 24 h (data not shown). An aliquot of 150 μL of supernate was collected for cytokines' analysis. […] Differentiated and non-differentiated EoL-1 cells were exposed from 0.1 to 2.3 mM levocabastine ([…]Levocabastine 0.05% solution eye drops containing cyclodextrins, without benzalkonium chloride), and aliquots of the supernates were collected after 12 and 24 h. The content of cytokines at time zero was estimated by treating the cells with 400 nM calcimycin (A-23187), which is a cytolytic agent that frees all the mediators from the cytoplasmic compartment. In addition, for each experiment we tested the effect of the vehicle, which was added to the wells in a concentration equal to the maximum amount used for drug dilution.
Samples (supernates 12 and 24 h) in triplicate were analyzed using Luminex 200™ (Luminex, Austin, Tex.) and Beadview software v1.0 (Upstate Cell Signaling Solutions, Temecula, Calif.).
All data are presented as mean±SEM for the indicated number of experiments. Statistical significance was determined by Newman-Keuls test after ANOVA using GraphPad Prism (version 3.0; GraphPad Software Inc., San Diego, Calif., USA). P-values<0.05 were considered to be significant.

[1] = 24 h, Levocabastine 2 mM vs TNF-α
[2] = 24 h, TNF-α 5 ng + Levocabastine 2 mM vs TNF-α
[3] = 24 h, TNF-α 10 ng + Levocabastine 2 mM vs TNF-α
[4] = 24 h, TNF-α 20 ng + Levocabastine 2 mM vs TNF-α
[5] = 24 h, TNF-α 5, 10, 20 ng + Levocabastine 2 mM vs TNF-α
[6] = 24 h, VCAM-1 + Levocabastine 2 mM vs VCAM-1

C[C@@H]1CN([C@H]2CC[C@](C#N)(c3ccc(F)cc3)CC2)CC[C@]1(C(=O)O)c1ccccc1 [Levocabastine, levocabastine]
IL-12p40 (PMA), p of decrement [1]: P < 0.001 | IP-10 (PMA), p of decrement [1]: ns | MCP-1 (PMA), p of decrement [1]: ns | MIP-1α (PMA), p of decrement [1]: Increase | MIP-1β (PMA), p of decrement [1]: Increase | RANTES (PMA), p of decrement [1]: Increase | TGF-α (PMA), p of decrement [1]: ns | VEGF (PMA), p of decrement [1]: P < 0.001 | Fractalkine (PMA), p of decrement [2]: ns | G-CSF (PMA), p of decrement [2]: ns | GM CSF (PMA), p of decrement [2]: ns | IL-1β (PMA), p of decrement [2]: ns | IL-5 (PMA), p of decrement [2]: ns | IL-6 (PMA), p of decrement [2]: ns | IL-7 (PMA), p of decrement [2]: ns | IL-8 (PMA), p of decrement [2]: P < 0.001 | IL-10 (PMA), p of decrement [2]: ns | IL-12p40 (PMA), p of decrement [2]: ns | IP-10 (PMA), p of decrement [2]: ns | MCP-1 (PMA), p of decrement [2]: ns | MIP-1α (PMA), p of decrement [2]: ns | MIP-1β (PMA), p of decrement [2]: ns | TGF-α (PMA), p of decrement [2]: ns | VEGF (PMA), p of decrement [2]: P < 0.05 | Fractalkine (PMA), p of decrement [3]: ns | G-CSF (PMA), p of decrement [3]: ns | GM CSF (PMA), p of decrement [3]: ns | IL-1β (PMA), p of decrement [3]: ns | IL-5 (PMA), p of decrement [3]: ns | IL-6 (PMA), p of decrement [3]: ns | IL-7 (PMA), p of decrement [3]: ns | IL-8 (PMA), p of decrement [3]: P < 0.001 | IL-10 (PMA), p of decrement [3]: ns | IL-12p40 (PMA), p of decrement [3]: ns | IP-10 (PMA), p of decrement [3]: ns | MCP-1 (PMA), p of decrement [3]: ns | MIP-1α (PMA), p of decrement [3]: ns | MIP-1β (PMA), p of decrement [3]: ns | TGF-α (PMA), p of decrement [3]: ns | VEGF (PMA), p of decrement [3]: ns | Fractalkine (PMA), p of decrement [4]: ns | G-CSF (PMA), p of decrement [4]: ns | GM CSF (PMA), p of decrement [4]: ns | IL-1β (PMA), p of decrement [4]: ns | IL-5 (PMA), p of decrement [4]: ns | IL-6 (PMA), p of decrement [4]: ns | IL-7 (PMA), p of decrement [4]: ns | IL-8 (PMA), p of decrement [4]: P < 0.001 | IL-10 (PMA), p of decrement [4]: ns | IL-12p40 (PMA), p of decrement [4]: ns | IP-10 (PMA), p of decrement [4]: ns | MCP-1 (PMA), p of decrement [4]: ns | MIP-1α (PMA), p of decrement [4]: ns | MIP-1β (PMA), p of decrement [4]: ns | TGF-α (PMA), p of decrement [4]: ns | VEGF (PMA), p of decrement [4]: P < 0.05 | IL-1ra (PMA), p of decrement [5]: increase of cytokine secretion | IL-1α (PMA), p of decrement [5]: increase of cytokine secretion | RANTES (PMA), p of decrement [5]: increase of cytokine secretion | Fractalkine (PMA), p of decrement (24 h, TNF-α vs Lev 0.1 mM): ns | IL-1ra (PMA), p of decrement (24 h, TNF-α vs Lev 0.1 mM): ns | IL-1α (PMA), p of decrement (24 h, TNF-α vs Lev 0.1 mM): ns | IL-1β (PMA), p of decrement (24 h, TNF-α vs Lev 0.1 mM): p < 0.05 | IL-5 (PMA), p of decrement (24 h, TNF-α vs Lev 0.1 mM): ns | IL-7 (PMA), p of decrement (24 h, TNF-α vs Lev 0.1 mM): ns | IL-8 (PMA), p of decrement (24 h, TNF-α vs Lev 0.1 mM): ns | IP-10 (PMA), p of decrement (24 h, TNF-α vs Lev 0.1 mM): ns | MCP-1 (PMA), p of decrement (24 h, TNF-α vs Lev 0.1 mM): ns | MIP-1α (PMA), p of decrement (24 h, TNF-α vs Lev 0.1 mM): ns | MIP-1β (PMA), p of decrement (24 h, TNF-α vs Lev 0.1 mM): ns | RANTES (PMA), p of decrement (24 h, TNF-α vs Lev 0.1 mM): ns | VEGF (PMA), p of decrement (24 h, TNF-α vs Lev 0.1 mM): ns | Fractalkine (PMA), p of decrement (24 h, TNF-α vs Lev 0.5 mM): ns | IL-1ra (PMA), p of decrement (24 h, TNF-α vs Lev 0.5 mM): ns | IL-1α (PMA), p of decrement (24 h, TNF-α vs Lev 0.5 mM): ns | IL-1β (PMA), p of decrement (24 h, TNF-α vs Lev 0.5 mM): ns | IL-5 (PMA), p of decrement (24 h, TNF-α vs Lev 0.5 mM): ns | IL-7 (PMA), p of decrement (24 h, TNF-α vs Lev 0.5 mM): ns | IL-8 (PMA), p of decrement (24 h, TNF-α vs Lev 0.5 mM): ns | IP-10 (PMA), p of decrement (24 h, TNF-α vs Lev 0.5 mM): ns | MCP-1 (PMA), p of decrement (24 h, TNF-α vs Lev 0.5 mM): ns | MIP-1α (PMA), p of decrement (24 h, TNF-α vs Lev 0.5 mM): ns | MIP-1β (PMA), p of decrement (24 h, TNF-α vs Lev 0.5 mM): ns | RANTES (PMA), p of decrement (24 h, TNF-α vs Lev 0.5 mM): ns | VEGF (PMA), p of decrement (24 h, TNF-α vs Lev 0.5 mM): ns | Fractalkine (PMA), p of decrement (24 h, TNF-α vs Lev 1.0 mM): ns | IL-1ra (PMA), p of decrement (24 h, TNF-α vs Lev 1.0 mM): ns | IL-1α (PMA), p of decrement (24 h, TNF-α vs Lev 1.0 mM): ns | IL-1β (PMA), p of decrement (24 h, TNF-α vs Lev 1.0 mM): p < 0.05 | IL-5 (PMA), p of decrement (24 h, TNF-α vs Lev 1.0 mM): ns | IL-7 (PMA), p of decrement (24 h, TNF-α vs Lev 1.0 mM): ns | IL-8 (PMA), p of decrement (24 h, TNF-α vs Lev 1.0 mM): ns | IP-10 (PMA), p of decrement (24 h, TNF-α vs Lev 1.0 mM): ns | MCP-1 (PMA), p of decrement (24 h, TNF-α vs Lev 1.0 mM): ns | MIP-1α (PMA), p of decrement (24 h, TNF-α vs Lev 1.0 mM): ns | MIP-1β (PMA), p of decrement (24 h, TNF-α vs Lev 1.0 mM): ns | RANTES (PMA), p of decrement (24 h, TNF-α vs Lev 1.0 mM): ns | VEGF (PMA), p of decrement (24 h, TNF-α vs Lev 1.0 mM): p < 0.05 | Fractalkine (PMA), p of decrement (24 h, TNF-α vs Lev 2.3 mM): p < 0.01 | IL-1ra (PMA), p of decrement (24 h, TNF-α vs Lev 2.3 mM): ns | IL-1α (PMA), p of decrement (24 h, TNF-α vs Lev 2.3 mM): ns | IL-1β (PMA), p of decrement (24 h, TNF-α vs Lev 2.3 mM): ns | IL-5 (PMA), p of decrement (24 h, TNF-α vs Lev 2.3 mM): ns | IL-7 (PMA), p of decrement (24 h, TNF-α vs Lev 2.3 mM): ns | IL-8 (PMA), p of decrement (24 h, TNF-α vs Lev 2.3 mM): ns | IP-10 (PMA), p of decrement (24 h, TNF-α vs Lev 2.3 mM): ns | MCP-1 (PMA), p of decrement (24 h, TNF-α vs Lev 2.3 mM): ns | MIP-1α (PMA), p of decrement (24 h, TNF-α vs Lev 2.3 mM): ns | MIP-1β (PMA), p of decrement (24 h, TNF-α vs Lev 2.3 mM): ns | RANTES (PMA), p of decrement (24 h, TNF-α vs Lev 2.3 mM): ns | VEGF (PMA), p of decrement (24 h, TNF-α vs Lev 2.3 mM): p < 0.01 | Fractalkine (PMA), p of decrement [6]: ns | G-CSF (PMA), p of decrement [6]: Increase | GM-CSF (PMA), p of decrement [6]: ns | IL-1ra (PMA), p of decrement [6]: Increase | IL-1α (PMA), p of decrement [6]: Increase | IL-1β (PMA), p of decrement [6]: ns | IL-5 (PMA), p of decrement [6]: ns | IL-6 (PMA), p of decrement [6]: ns | IL-7 (PMA), p of decrement [6]: Increase | IL-8 (PMA), p of decrement [6]: Increase | IL-10 (PMA), p of decrement [6]: ns | IL-12p40 (PMA), p of decrement [6]: P < 0.01 | IP-10 (PMA), p of decrement [6]: ns | MCP-1 (PMA), p of decrement [6]: Increase | MIP-1α (PMA), p of decrement [6]: Increase | MIP-1β (PMA), p of decrement [6]: Increase | RANTES (PMA), p of decrement [6]: Increase | TGF-α (PMA), p of decrement [6]: ns | VEGF (PMA), p of decrement [6]: P < 0.001 | release of VEGF (FIG. 4 Panel A) (EoL-1 cells differentiated with PMA 24 h before the experiment): able to reduce the release | IL-8 release (FIG. 9) (PMA differentiated EoL-1 cells after TNF-α challenge): able to reduce
